Results published in the supplement of paper PMC7840683.
Counter-ions that a name gives are not always drawn. ± gives the standard deviation of the averaged measurements.

System: HepaRG
Assay: LDH release cytotoxicity, % of total lysis control; higher = more cytotoxic
Conditions: 48 h
Procedure, shortened: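 Duplicate wells of single-lot HepaRG cells, grown on collagen I-coated 96-well plates, received eight-point half-log series of test chemicals with 100 µM as the top concentration. Exposure lasted 48 h in serum-free induction medium with 0.5% DMSO, while total lysis wells received 0.1% Triton X. Resorufin fluorescence (CytoTox-ONE, Tecan Safire) was used to quantify LDH leaked into 50 µL of spent medium. Values for percent cytotoxicity were normalized to on-plate vehicle and total lysis controls and averaged across the duplicates.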

Structure (SMILES)	LDH release cytotoxicity (0.03162 µM) [%]	LDH release cytotoxicity (0.1 µM) [%]	LDH release cytotoxicity (0.3162278 µM) [%]	LDH release cytotoxicity (1 µM) [%]	LDH release cytotoxicity (3.16228 µM) [%]	LDH release cytotoxicity (10 µM) [%]	LDH release cytotoxicity (31.6228 µM) [%]	LDH release cytotoxicity (100 µM) [%]	further results
CCCCCC(=O)O [Hexanoic acid]	-2.52 ± 0.086	-1.97 ± 0.41	-0.0407 ± 0.14	-1.44 ± 0.26	-1.32 ± 0.1	-1.49 ± 1.2	-0.358 ± 0.055	0.23 ± 0.78	
CC(C)CCCCCCc1ccc(O)cc1 [4-Nonylphenol, branched]	-2.12 ± 0.23	-1.46 ± 0.5	-1.72 ± 0.52	-1.24 ± 0.36	-1.58 ± 0.073	-1.23 ± 0.036	-0.532 ± 0.65	-0.17 ± 1	
Cn1cnc([N+](=O)[O-])c1Sc1ncnc2nc[nH]c12 [Azathioprine]									LDH release cytotoxicity (0.0314647 µM): -0.881 ± 1.4%; LDH release cytotoxicity (0.0995 µM): -1.48 ± 0.6%; LDH release cytotoxicity (0.3146466 µM): -1.64 ± 0.77%; LDH release cytotoxicity (0.995 µM): -0.793 ± 1.6%; LDH release cytotoxicity (3.14647 µM): 1.06 ± 0.75%; LDH release cytotoxicity (9.95 µM): 4.17 ± 1.2%; LDH release cytotoxicity (31.4647 µM): 6.78 ± 0.16%; LDH release cytotoxicity (99.5 µM): 8.21 ± 1.2%
Fc1ccccc1C(F)COC1CCC(Nc2[nH]cnc3nncc2-3)CC1 (stereo not given) [MK-968]	-1.09 ± 1.7	-1.55 ± 0.47	-2.19 ± 0.36	-2.2 ± 0.68	-2.43 ± 0.47	-2.42 ± 0.46	1.23 ± 0.027	10.8 ± 2.6	
CN(Cc1cnc2nc(N)nc(N)c2n1)c1ccc(C(=O)NC(CCC(=O)O)C(=O)O)cc1 (stereo not given) [Methotrexate]	-2.75 ± 1.4	-1.02 ± 1.2	0.713 ± 1	0.595 ± 0.46	2.21 ± 1.1	1.79 ± 0.51	3.1 ± 0.33	3.39 ± 1.3	
c1ccc2ncccc2c1 [Quinoline]	-1.44 ± 0.36	0.113 ± 1.4	-0.853 ± 0.57	-1.155 ± 0.0096	0.144 ± 0.76	-1.28 ± 1.3	-0.47 ± 0.21	2.26 ± 1.6	
CCOC(=O)CC(CC(=O)OCC)(OC(C)=O)C(=O)OCC [Acetyltriethyl citrate]	-2.01 ± 1.3	-1.76 ± 0.41	-1.48 ± 0.41	-1.13 ± 1.1	-0.615 ± 0.31	-1.09 ± 1.7	0.655 ± 0.037	0.942 ± 0.48	
OB(O)O [Boric acid (H3BO3)]	-0.989 ± 0.041	-0.753 ± 1.6	0.0737 ± 1.3	-0.582 ± 0.41	-0.954 ± 0.45	-0.232 ± 0.15	0.368 ± 0.65	0.851 ± 0.63	
CCCOC(=O)c1ccc(O)cc1 [Propylparaben]	-0.197 ± 0.47	-0.55 ± 1.1	-0.664 ± 0.59	-0.711 ± 0.26	-0.982 ± 0.64	-0.514 ± 0.63	-0.541 ± 0.47	0.018 ± 1.1	
CCN(Cc1cccc(S(=O)(=O)O)c1)c1ccc(C(=C2C=CC(=[N+](CC)Cc3cccc(S(=O)(=O)O)c3)C=C2)c2ccccc2S(=O)(=O)O)cc1 [FD&C Blue No. 1]									LDH release cytotoxicity (0.0204 µM): -1.63 ± 0.15%; LDH release cytotoxicity (0.0645 µM): -0.475 ± 0.088%; LDH release cytotoxicity (0.203967 µM): -1.54 ± 0.48%; LDH release cytotoxicity (0.645 µM): -1.35 ± 0.38%; LDH release cytotoxicity (2.03967 µM): -1.04 ± 0.34%; LDH release cytotoxicity (6.45 µM): -0.732 ± 0.83%; LDH release cytotoxicity (20.3967 µM): -1.07 ± 0.46%; LDH release cytotoxicity (64.5 µM): -1.76 ± 0.13%
CCc1nn(C2CCCCC2)c2cc(C3(C#N)CCC(C(=O)O)CC3)ccc12 (stereo not given)	-0.818 ± 0.12	-1.01 ± 0.074	-0.56 ± 0.022	-1.9 ± 0.17	-1.26 ± 0.43	-1.43 ± 0.081	1.5 ± 0.88	7.65 ± 1.3	
CC(=O)NC1(c2cccc(F)c2)CCN(CCC2(c3ccc(Cl)c(Cl)c3)CN(c3ccccc3)C(=O)CO2)CC1 (stereo not given)	-0.672 ± 1.2	-0.672 ± 0.82	-0.643 ± 0.17	-0.552 ± 0.44	-0.767 ± 0.35	-0.38 ± 0.15	0.499 ± 0.37	3.41 ± 1.2	
O=C(O)CN(CC(=O)O)CC(=O)O [Nitrilotriacetic acid]	-0.992 ± 1.1	-2.54 ± 0.17	-2.46 ± 0.55	-2.18 ± 1.1	-1.64 ± 0.13	-2.38 ± 0.72	-1.51 ± 0.34	-0.286 ± 0.059	
OC(c1ccc(Cl)cc1)(c1cncnc1)c1ccccc1Cl (stereo not given) [Fenarimol]		-0.827 ± 2.8		-2.32 ± 0.2	-0.581 ± 1.4	0.969 ± 1.6	2.21 ± 1.1	15.4 ± 0.42	LDH release cytotoxicity (0.031623 µM): -1.68 ± 0.087%; LDH release cytotoxicity (0.316228 µM): -0.805 ± 1.8%
CNC(=O)ON=C(SC)C(=O)N(C)C [Oxamyl]	-0.761 ± 0.13	-0.802 ± 0.67	-1.45 ± 0.73	-1.85 ± 0.63	-1.65 ± 0.22	-1.06 ± 0.34	-1.05 ± 0.48	-1.42 ± 0.44	
COC(=O)C(C)Oc1ccc(Oc2ccc(Cl)cc2Cl)cc1 (racemic) [Methyl (RS)-2-[4-(2,4-dichlorophenoxy)phenoxy]propionate]	-0.971 ± 1.5	-1.59 ± 0.12	-1.59 ± 1.4	-2.24 ± 0.54	-1.38 ± 0.41	-1.28 ± 0.4	-1.8 ± 0.099	-0.104 ± 0.18	
O=C(O)COc1ccc(Cl)cc1Cl [2,4-Dichlorophenoxyacetic acid]	-2.81 ± 0.75	-3.06 ± 0.11	-3.35 ± 0.81	-3.21 ± 0.55	-3.24 ± 0.42	-3.79 ± 0.69	48.3 ± 0.8	69.9 ± 2	
O=C(O)Cc1ccccc1Nc1c(Cl)cccc1Cl [Diclofenac sodium]	0.371 ± 0.76	-0.605 ± 0.41	-1.36 ± 0.43	-0.678 ± 0.21	-0.378 ± 0.25	-0.578 ± 0.3	1.19 ± 0.14	12 ± 1	
O=C(Oc1ccccc1)c1cccc(C(=O)Oc2ccccc2)c1 [Diphenyl isophthalate]	-0.961 ± 0.23	-0.451 ± 0.024	-0.0836 ± 0.51	-0.13 ± 0.26	-0.548 ± 1.1	-0.00904 ± 1.2	0.842 ± 0.83	2.16 ± 1.3	
CC(=O)OC1CC(C)OC(C)O1 (stereo not given) [Dimethoxane]	-0.261 ± 1.2	-0.746 ± 0.9	-1.64 ± 0.38	-1.54 ± 0.41	-1.77 ± 0.27	-1.72 ± 0.61	-1.51 ± 0.86	4.58 ± 1.8	
COC(=O)CSc1cc(N=c2sc(=O)n3n2CCCC3)c(F)cc1Cl [Fluthiacet-methyl]	-1.78 ± 1.1	-2.67 ± 1	-1.91 ± 1	-1.73 ± 0.018	-1.61 ± 0.37	-1.57 ± 0.3	-0.786 ± 0.091	0.903 ± 0.25	
NS(=O)(=O)c1cc2c(cc1Cl)NCNS2(=O)=O [Hydrochlorothiazide]	-0.499 ± 1.2	-1.26 ± 0.43	-1.458 ± 0.011	-1.51 ± 0.88	-1.15 ± 0.3	-0.679 ± 0.3	-1.51 ± 0.25	-0.146 ± 0.38	
ClC(Cl)c1ccccc1 [Benzal chloride]	0.273 ± 0.17	-0.75 ± 0.78	-0.461 ± 0.39	-1.3 ± 1.2	-1.29 ± 0.9	0.533 ± 0.9	1.06 ± 1.1	2.15 ± 0.29	
Clc1cc(Cl)c2c(c1)N=C1CCCCCN1C2	-2.23 ± 0.45	-1.38 ± 0.19	-0.748 ± 0.22	-1.45 ± 0.52	-1.34 ± 0.11	1.41 ± 0.42	1.58 ± 0.34	3.36 ± 0.44	
CCOP(=S)(Oc1cnc(C(C)(C)C)nc1)OC(C)C (stereo not given) [Tebupirimfos]		-1.67 ± 1.3		-2.26 ± 0.87	-2.34 ± 0.48	-3.02 ± 0.61	-2.48 ± 1.2	-2.06 ± 1.2	LDH release cytotoxicity (0.031623 µM): 0.203 ± 2.2%; LDH release cytotoxicity (0.316228 µM): -2.72 ± 0.73%
N[C@@H](Cc1c[nH]c2ccccc12)C(=O)O [L-Tryptophan]	-1.94 ± 0.23	-2.65 ± 0.14	-1.1 ± 0.19	-1.86 ± 0.22	-2.03 ± 0.27	-1.29 ± 0.26	-1.37 ± 0.3	-1.29 ± 0.24	
CCCCCCCCC=CCCCCCCCC(=O)OCC(O)C1OCC(O)C1O (stereo not given) [Sorbitan, mono-(9Z)-9-octadecenoate]	-0.746 ± 0.21	-0.105 ± 0.41	-1.38 ± 0.83	-1.65 ± 0.91	-1.48 ± 1	-1.08 ± 0.14	-0.835 ± 0.26	-0.317 ± 0.22	
CCc1ccc(O)c(C(C)(C)C)c1 [2-tert-Butyl-4-ethylphenol]	-1.09 ± 0.39	-1.23 ± 0.81	-1.36 ± 0.88	-2.09 ± 0.78	-0.936 ± 0.3	0.529 ± 0.44	-0.602 ± 0.34	0.703 ± 0.44	
CC(Oc1ccc(Cl)cc1Cl)C(=O)O (stereo not given) [Dichlorprop]	-0.461 ± 0.19	-0.49 ± 0.4	-0.517 ± 1.3	0.354 ± 0.43	0.35 ± 0.52	0.358 ± 0.17	0.57 ± 0.15	1.75 ± 0.062	
CCc1nc(N)nc(N)c1-c1ccc(Cl)cc1 [Pyrimethamine]	-0.622 ± 0.53	-0.806 ± 0.47	0.238 ± 0.62	0.679 ± 0.29	1.89 ± 0.15	4.04 ± 0.17	2.08 ± 0.49	14.2 ± 0.59	
